The text below walks through data of patent publication US20230203043A1, “NOVEL IMIDAZOPYRAZINE DERIVATIVES” (Hoffmann-La Roche Inc., priority 2020, published 2023).

Counter-ions that a name gives are not always drawn.

A word on the IC90: it is the concentration at which the effect reaches the 90% level.

The first experiment concerns Acinetobacter baumannii ATCC17961. Description: Antimicrobial susceptibility testing: 90% growth inhibitory concentration (IC90) determination in Iso-Sensitest broth, OD600 growth. It counts as cell-based. As to conditions: Acinetobacter baumannii, ATCC17961, 16 h, read-out: A. baumannii ATCC 17961 IC90 (uM), strain ATCC 17961, OD600 growth over 16 h. In short, it runs like this:
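Each strain, at about 5×10^(5) CFU/ml, was incubated with twofold dilutions of compound at 35±2° C for 16 h, and IC90 was calculated from kinetic optical density measured at 600 nm during logarithmic growth.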
For `C[C@@H](NC(=O)c1ccc(Nc2nccn3c(-c4cn(CC#N)nc4C(F)(F)F)cnc23)cc1Cl)C(=O)N1CC[C@H](N)C1` [Example 665, N-[(1R)-2-[(3S)-3-aminopyrrolidin-1-yl]-1-methyl-2-oxo-ethyl]-2-chloro-4-[[3-[1-(cyanomethyl)-3-(trifluoromethyl)pyrazol-4-yl]imidazo[1,2-a]pyrazin-8-yl]amino]benzamide formate], the IC90 was 0.29 µM.

For `CC#CCn1cc(-c2cnc3c(Nc4ccc(C(=O)NCC(=O)NCCN)c(Cl)c4)nccn23)c(C(F)(F)F)n1` [Example 89, N-[2-(2-aminoethylamino)-2-oxoethyl]-4-[[3-[1-but-2-ynyl-3-(trifluoromethyl)pyrazol-4-yl]imidazo[1,2-a]pyrazin-8-yl]amino]-2-chlorobenzamide formate], the IC90 was 0.573 µM.

As for `CCc1cc(Nc2nccn3c(-c4cn(CC#N)nc4-c4ccccc4)cnc23)ccc1C(=O)NCCOCCN` [Example 781, N-[2-(2-aminoethoxy)ethyl]-4-[[3-[1-(cyanomethyl)-3-phenyl-pyrazol-4-yl]imidazo[1,2-a]pyrazin-8-yl]amino]-2-ethyl-benzamide formate], the IC90 worked out at 1.09 µM.

Consider `O=C(CN1CCN(C(=O)c2ccc(Nc3nccn4c(-c5cn(CC(F)F)nc5C(F)(F)F)cnc34)cc2Cl)CC1)NC1CNC1` [Example 599, N-(azetidin-3-yl)-2-(4-(2-chloro-4-((3-(1-(2,2-difluoroethyl)-3-(trifluoromethyl)-1H-pyrazol-4-yl)imidazo[1,2-a]pyrazin-8-yl)amino)benzoyl)piperazin-1-yl)acetamide formate], for which the IC90 stood at 0.522 µM.

As for `N[C@@H]1CN[C@H](C(=O)N2CCN(C(=O)c3ccc(Nc4nccn5c(-c6c[nH]nc6C(F)(F)F)cnc45)cc3Cl)CC2)C1` [Example 295, [4-[(2S,4S)-4-aminopyrrolidine-2-carbonyl]piperazin-1-yl]-[2-chloro-4-[[3-[3-(trifluoromethyl)-1H-pyrazol-4-yl]imidazo[1,2-a]pyrazin-8-yl]amino]phenyl] methanone formate], the 90% effect concentration (IC90) amounted to 0.473 µM.

For `Cc1cc(Nc2nccn3c(-c4cn(CC#N)nc4C(F)(F)F)cnc23)cc(F)c1C(=O)N1CCN(C(=O)[C@@H]2C[C@@H](O)CN2)CC1` [Example 721, 2-(4-(8-((3-fluoro-4-(4-((2S,4R)-4-hydroxypyrrolidine-2-carbonyl)piperazine-1-carbonyl)-5-methylphenyl)amino)imidazo[1,2-a]pyrazin-3-yl)-3-(trifluoromethyl)-1H-pyrazol-1-yl) acetonitrile formate], the IC90 is 0.452 µM.

`NCCNC(=O)N1CCN(C(=O)c2ccc(Nc3nccn4c(-c5c[nH]nc5C(F)(F)F)cnc34)cc2Cl)CC1` [Example 392, N-(2-aminoethyl)-4-[2-chloro-4-[[3-[3-(trifluoromethyl)-1H-pyrazol-4-yl]imidazo[1,2-a]pyrazin-8-yl]amino]benzoyl]piperazine-1-carboxamide formate]: the IC90 was found to be 0.208 µM.

As to `CCc1cc(Nc2nccn3c(-c4cn(CC(F)F)nc4C(F)(F)F)cnc23)ccc1C(=O)NCC(=O)NCC1(O)CNC1` [Example 546, 4-[[3-[1-(2,2-difluoroethyl)-3-(trifluoromethyl)pyrazol-4-yl]imidazo[1,2-a]pyrazin-8-yl]amino]-2-ethyl-N-[2-[(3-hydroxyazetidin-3-yl)methylamino]-2-oxo-ethyl]benzamide formate], the IC90 stood at 0.298 µM.

As for `O=C(NCCCNC(=O)[C@@H]1C[C@@H](O)CN1)c1ccc(Nc2nccn3c(-c4c[nH]nc4C(F)(F)F)cnc23)cc1Cl` [Example 429, (2S,4R)-N-[3-[[2-chloro-4-[[3-[3-(trifluoromethyl)-1H-pyrazol-4-yl]imidazo[1,2-a]pyrazin-8-yl]amino]benzoyl]amino]propyl]-4-hydroxypyrrolidine-2-carboxamide formate], the IC90 worked out at 1.07 µM.

Take `Cc1cc(Nc2nccn3c(-c4cn(C)nc4C(F)(F)F)cnc23)ccc1C(=O)N1CCN(C(=O)[C@@H]2C[C@](C)(O)CN2)CC1` [Example 472, formic acid; [4-[(2S,4S)-4-hydroxy-4-methylpyrrolidine-2-carbonyl]piperazin-1-yl]-[2-methyl-4-[[3-[1-methyl-3-(trifluoromethyl)pyrazol-4-yl]imidazo[1,2-a]pyrazin-8-yl]amino]phenyl]methanone]: the IC90 was 1.24 µM.

For `Cc1cc(Nc2nccn3c(-c4cn(C)nc4C(F)(F)F)cnc23)ccc1C(=O)N1CCN(C(=O)N[C@H]2CNC[C@@H]2O)CC1` [Example 470, formic acid; N-[(3S,4S)-4-hydroxypyrrolidin-3-yl]-4-[2-methyl-4-[[3-[1-methyl-3-(trifluoromethyl)pyrazol-4-yl]imidazo[1,2-a]pyrazin-8-yl]amino]benzoyl]piperazine-1-carboxamide], the IC90 was found to be 0.793 µM.

In the case of `CCc1cc(Nc2nccn3c(-c4cn(CC#N)nc4C(F)(F)F)cnc23)ccc1C(=O)NCC(=O)NCC1(O)CCNCC1` [Example 525, 4-[[3-[1-(cyanomethyl)-3-(trifluoromethyl)pyrazol-4-yl]imidazo[1,2-a]pyrazin-8-yl]amino]-2-ethyl-N-[2-[(4-hydroxy-4-piperidyl)methylamino]-2-oxo-ethyl]benzamide formate], the IC90 came out at 0.593 µM.

The experiment is the same for the next values; noted with them: Acinetobacter baumannii, ATCC17961, 16 h, strain ATCC 17961, OD600 growth over 16 h, read-out: A. baumannii ATCC 17961 IC90.
With `C#CCn1cc(-c2cnc3c(Nc4ccc(C(=O)N5CCC(CN)CC5)c(CC)c4)nccn23)c(C(F)(F)F)n1` [Example 46, [4-(aminomethyl)piperidin-1-yl]-[2-ethyl-4-[[3-[1-prop-2-ynyl-3-(trifluoromethyl)pyrazol-4-yl]imidazo[1,2-a]pyrazin-8-yl]amino]phenyl] methanone], the IC90 was determined as 0.093 µM.

On to `O=C(NC1CCC(NC(=O)[C@H]2C[C@H](O)CN2)C1)c1ccc(Nc2nccn3c(-c4c[nH]nc4C(F)(F)F)cnc23)cc1Cl` (mixture of isomers) [Example 373, rac-(2R,4S)-N-[3-[[2-chloro-4-[[3-[3-(trifluoromethyl)-1H-pyrazol-4-yl]imidazo[1,2-a]pyrazin-8-yl]amino]benzoyl]amino]cyclopentyl]-4-hydroxypyrrolidine-2-carboxamide], for which the IC90 was 1.11 µM.

With `C#CCn1cc(-c2cnc3c(Nc4ccc(C(=O)N[C@@H](C)CN)c(CC)c4)nccn23)c(C(F)(F)F)n1` [Example 55, N-[(2S)-1-aminopropan-2-yl]-2-ethyl-4-[[3-[1-prop-2-ynyl-3-(trifluoromethyl)pyrazol-4-yl]imidazo[1,2-a]pyrazin-8-yl]amino]benzamide], the IC90 amounted to 0.167 µM.

With `CCc1cc(Nc2nccn3c(-c4c[nH]nc4C(F)(F)F)cnc23)ccc1C(=O)NCCNC(=O)N1CC[C@@H](N)C1` [Example 517, (R)-3-amino-N-(2-(2-ethyl-4-((3-(3-(trifluoromethyl)-1H-pyrazol-4-yl)imidazo[1,2-a]pyrazin-8-yl)amino)benzamido)ethyl) pyrrolidine-1-carboxamide formate], the IC90 stood at 0.369 µM.

Turning to `O=C(N[C@H]1CCN(C(=O)[C@@H]2C[C@@H](O)CN2)C1)c1ccc(Nc2nccn3c(-c4c[nH]nc4C(F)(F)F)cnc23)cc1Cl` [Example 313, 2-chloro-N-[(3S)-1-[(2S,4R)-4-hydroxypyrrolidine-2-carbonyl]pyrrolidin-3-yl]-4-[[3-[3-(trifluoromethyl)-1H-pyrazol-4-yl]imidazo[1,2-a]pyrazin-8-yl]amino]benzamide], the 90% effect concentration (IC90) amounted to 0.995 µM.

On to `CCc1cc(Nc2nccn3c(-c4cn(CC(F)F)nc4C(F)(F)F)cnc23)ccc1C(=O)NCCNC(=O)[C@H]1CC[C@@H](N)C1` [Example 495, N-(2-((1S,3R)-3-aminocyclopentane-1-carboxamido)ethyl)-4-((3-(1-(2,2-difluoroethyl)-3-(trifluoromethyl)-1H-pyrazol-4-yl)imidazo[1,2-a]pyrazin-8-yl)amino)-2-ethylbenzamide formate], for which the IC90 was 0.173 µM.

With `CCc1cc(Nc2nccn3c(-c4cn(CC(F)F)nc4C(F)(F)F)cnc23)ccc1C(=O)NCC(=O)N1CC2CC1CN2` (centres unmarked) [Example 538, N-2-(2,5-diazabicyclo[2.2.1]heptan-2-yl)-2-oxo-ethyl]-4-[[3-[1-(2,2-difluoroethyl)-3-(trifluoromethyl)pyrazol-4-yl]imidazo[1,2-a]pyrazin-8-yl]amino]-2-ethyl-benzamide formate], the IC90 stood at 0.261 µM.

As for `CCc1cc(Nc2nccn3c(-c4cn(CCF)nc4C(F)(F)F)cnc23)ccc1C(=O)NCCOCC(C)(C)N` [Example 54, N-[2-(2-amino-2-methylpropoxy)ethyl]-2-ethyl-4-[[3-[1-(2-fluoroethyl)-3-(trifluoromethyl)pyrazol-4-yl]imidazo[1,2-a]pyrazin-8-yl]amino]benzamide], the IC90 came to 0.162 µM.

Consider `CCNC(=O)c1ccc(Nc2nccn3c(-c4cn(CCF)nc4C(F)(F)F)cnc23)cc1CC` [Example 114, N,2-diethyl-4-[[3-[1-(2-fluoroethyl)-3-(trifluoromethyl)pyrazol-4-yl]imidazo[1,2-a]pyrazin-8-yl]amino]benzamide], for which the IC90 is 0.329 µM.

Consider `C=CCn1cc(-c2cnc3c(Nc4cc(C)c(C(=O)N5CCNCC5)c(F)c4)nccn23)c(C(F)(F)F)n1` [Example 69, [2-fluoro-6-methyl-4-[[3-[1-prop-2-enyl-3-(trifluoromethyl)pyrazol-4-yl]imidazo[1,2-a]pyrazin-8-yl]amino]phenyl]-piperazin-1-ylmethanone], for which the IC90 came to 0.433 µM.

With `NC1CCN(C(=O)CNC(=O)c2ccc(Nc3nccn4c(-c5c[nH]nc5C(F)(F)F)cnc34)cc2Cl)CC1` [Example 136, N-[2-(4-aminopiperidin-1-yl)-2-oxoethyl]-2-chloro-4-[[3-[3-(trifluoromethyl)-1H-pyrazol-4-yl]imidazo[1,2-a]pyrazin-8-yl]amino]benzamide], the IC90 worked out at 1.33 µM.
